Measured values published in ChEMBL document CHEMBL1201862, “PubChem BioAssay data set” (2004).
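Protocol summary: plate cells (96-well), add compound at 5 concentrations, incubate 48 h, interpolate endpoints linearly. Abbreviation: GI50, concentration required for 50% inhibition of growth.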 Activity calls are given as the source filed them. Cut-off read from the data, not from the text of the source: active = GI50 up to about 1.1 µM and inactive = higher.

Experiments:
Test in all cases: growth of human tumour cells (NCI), 48 h
[1] = system: HCC 2998
[2] = system: RPMI-8226
[3] = system: DU-145
[4] = system: SNB-75
[5] = system: OVCAR-3
[6] = system: MDA-MB-435
[7] = system: OVCAR-5
[8] = system: ACHN
[9] = system: SNB-19
[10] = system: HOP-62
[11] = system: 786-0
[12] = system: SF-539
[13] = system: SF-268
[14] = system: MOLT-4
[15] = system: HL-60
[16] = system: SW-620
[17] = system: HCT-116
[18] = system: A498
[19] = system: COLO 205
[20] = system: EKVX

Row | Compound | GI50 [1] | GI50 [2] | GI50 [3] | GI50 [4] | GI50 [5] | GI50 [6] | GI50 [7] | GI50 [8] | GI50 [9] | GI50 [10] | GI50 [11] | GI50 [12] | GI50 [13] | GI50 [14] | GI50 [15] | GI50 [16] | GI50 [17] | GI50 [18] | GI50 [19] | GI50 [20]
1 | COC1=C(N2CC2)C(=O)c2nc3n(c2C1=O)CCC3 | 0.679 µM (active) | 0.0489 µM (active) | 0.372 µM (active) | 1.71 µM (inactive) | 0.393 µM (active) | 1.45 µM (inactive) | 1.26 µM (inactive) | 0.275 µM (active) | 1.39 µM (inactive) | 0.953 µM (active) | 0.321 µM (active) | 2.04 µM (inactive) | 1.6 µM (inactive) | 0.306 µM (active) | 0.21 µM (active) | 0.242 µM (active) | 0.434 µM (active) | 1.41 µM (inactive) | 0.656 µM (active) | –
2 | COc1ccccc1NC(=S)N/N=C1\C(=O)Nc2ccccc21 | > 100 µM (inactive) | > 100 µM (inactive) | 0.762 µM (active) | 58.9 µM (inactive) | 57.7 µM (inactive) | > 100 µM (inactive) | > 100 µM (inactive) | > 100 µM (inactive) | > 100 µM (inactive) | > 100 µM (inactive) | > 100 µM (inactive) | > 100 µM (inactive) | 0.583 µM (active) | > 100 µM (inactive) | – | > 100 µM (inactive) | > 100 µM (inactive) | > 100 µM (inactive) | > 100 µM (inactive) | 86.3 µM (inactive)
3 | O=[N+]([O-])c1cc([As](Br)c2ccc(O)c([N+](=O)[O-])c2)ccc1O | 1.02 µM (active) | 0.208 µM (active) | 2 µM (inactive) | 1.93 µM (inactive) | 1.81 µM (inactive) | 1.78 µM (inactive) | 2.05 µM (inactive) | 1.86 µM (inactive) | 1.94 µM (inactive) | 1.91 µM (inactive) | 1.44 µM (inactive) | 1.77 µM (inactive) | 2.14 µM (inactive) | 0.259 µM (active) | 1.17 µM (inactive) | 0.733 µM (active) | 2 µM (inactive) | 1.95 µM (inactive) | 1.26 µM (inactive) | 1.87 µM (inactive)
4 | NC(=S)N/N=C\c1nccc2ccccc12 | 3.04 µM (inactive) | 0.267 µM (active) | 0.404 µM (active) | – | 0.281 µM (active) | 0.388 µM (active) | 0.264 µM (active) | 0.0501 µM (active) | 0.531 µM (active) | 0.321 µM (active) | 0.29 µM (active) | 0.155 µM (active) | 0.216 µM (active) | 0.226 µM (active) | 0.327 µM (active) | 0.561 µM (active) | 0.44 µM (active) | 0.21 µM (active) | 0.302 µM (active) | 0.302 µM (active)
5 | c1cc2nsnc2c2c[nH]cc12 | > 100 µM (inactive) | > 100 µM (inactive) | > 100 µM (inactive) | 50.6 µM (inactive) | > 100 µM (inactive) | 40.6 µM (inactive) | 47.4 µM (inactive) | 81.5 µM (inactive) | – | > 100 µM (inactive) | > 100 µM (inactive) | > 100 µM (inactive) | > 100 µM (inactive) | 85.3 µM (inactive) | 67.1 µM (inactive) | > 100 µM (inactive) | > 100 µM (inactive) | 24.7 µM (inactive) | > 100 µM (inactive) | 26.9 µM (inactive)
6 | COc1cc(S(=O)(=O)Nc2nc(-c3ccc(N4C(=O)C(CC(=O)O)SC4c4cccs4)cc3)cs2)ccc1Cl (centres undefined) | 27 µM (inactive) | – | 43.5 µM (inactive) | 17.2 µM (inactive) | 36.2 µM (inactive) | 40 µM (inactive) | > 100 µM (inactive) | > 100 µM (inactive) | 79.6 µM (inactive) | 54 µM (inactive) | 41.8 µM (inactive) | 27.9 µM (inactive) | 21.9 µM (inactive) | 29 µM (inactive) | 31 µM (inactive) | 28.9 µM (inactive) | 29.3 µM (inactive) | > 100 µM (inactive) | > 100 µM (inactive) | –
7 | CC(=O)Nc1cc2ccc(=O)oc2cc1Cl | > 100 µM (inactive) | > 100 µM (inactive) | > 100 µM (inactive) | > 100 µM (inactive) | > 100 µM (inactive) | > 100 µM (inactive) | > 100 µM (inactive) | > 100 µM (inactive) | > 100 µM (inactive) | > 100 µM (inactive) | > 100 µM (inactive) | > 100 µM (inactive) | > 100 µM (inactive) | > 100 µM (inactive) | > 100 µM (inactive) | > 100 µM (inactive) | > 100 µM (inactive) | > 100 µM (inactive) | > 100 µM (inactive) | > 100 µM (inactive)
8 | CCOC(=O)C(=Cc1ccc(Oc2ccccc2)cc1)C(=O)OCC | 10.6 µM (inactive) | 2.79 µM (inactive) | 11.6 µM (inactive) | 2.66 µM (inactive) | 6.38 µM (inactive) | 2.58 µM (inactive) | 4.44 µM (inactive) | 6.3 µM (inactive) | 5.73 µM (inactive) | 3.28 µM (inactive) | 1.85 µM (inactive) | 3.84 µM (inactive) | 3.32 µM (inactive) | 1.92 µM (inactive) | 1.73 µM (inactive) | 2.22 µM (inactive) | 2.31 µM (inactive) | 15.3 µM (inactive) | 4.06 µM (inactive) | 15.4 µM (inactive)
9 | C=C1c2[nH]c3ccccc3c2C2C(CC)C1CCN2C (centres undefined) | 18.5 µM (inactive) | 32.5 µM (inactive) | > 100 µM (inactive) | – | > 100 µM (inactive) | 65.9 µM (inactive) | > 100 µM (inactive) | > 100 µM (inactive) | > 100 µM (inactive) | > 100 µM (inactive) | > 100 µM (inactive) | 92 µM (inactive) | > 100 µM (inactive) | 27.2 µM (inactive) | 49.1 µM (inactive) | > 100 µM (inactive) | 51.2 µM (inactive) | 18.9 µM (inactive) | 16.7 µM (inactive) | 28.4 µM (inactive)
10 | COc1ccc2[nH]c3c([N+](=O)[O-])ccc(Cl)c3c(=O)c2c1 | 28.9 µM (inactive) | 17.4 µM (inactive) | 47.3 µM (inactive) | – | 16.8 µM (inactive) | 21 µM (inactive) | > 43 µM (inactive) | 15.8 µM (inactive) | 51.4 µM (inactive) | 26.7 µM (inactive) | 16.7 µM (inactive) | 17.9 µM (inactive) | 20.8 µM (inactive) | 3.52 µM (inactive) | 3.02 µM (inactive) | 7.67 µM (inactive) | 13.7 µM (inactive) | 91.2 µM (inactive) | 17 µM (inactive) | 44.1 µM (inactive)
11 | Cc1cc(-c2nc3cc(F)ccc3s2)ccc1NC(=O)[C@@H](N)CCCCN | 0.735 µM (active) | 2.09 µM (inactive) | 13.9 µM (inactive) | 1.82 µM (inactive) | 6.11 µM (inactive) | 1.79 µM (inactive) | 0.119 µM (active) | 6.04 µM (inactive) | 10.4 µM (inactive) | 3.13 µM (inactive) | 2.69 µM (inactive) | 4.99 µM (inactive) | 6.75 µM (inactive) | 1.3 µM (inactive) | 2.02 µM (inactive) | 2.65 µM (inactive) | 2 µM (inactive) | 10.2 µM (inactive) | 2.58 µM (inactive) | 1.87 µM (inactive)
12 | OCCN(CCO)c1ccc2c(c1)Cc1ccccc1-2 | 64.3 µM (inactive) | 44.8 µM (inactive) | 17.7 µM (inactive) | – | 17 µM (inactive) | 51.6 µM (inactive) | 48.3 µM (inactive) | 32.1 µM (inactive) | > 100 µM (inactive) | 73.5 µM (inactive) | > 100 µM (inactive) | 42.9 µM (inactive) | 26.2 µM (inactive) | 45.8 µM (inactive) | 41.7 µM (inactive) | 64.4 µM (inactive) | 21 µM (inactive) | 35.1 µM (inactive) | 18.4 µM (inactive) | 43.1 µM (inactive)
13 | Cn1c(-c2ccco2)ccc1-c1ccc(C=O)o1 | > 100 µM (inactive) | 29 µM (inactive) | 52.4 µM (inactive) | > 100 µM (inactive) | 45.6 µM (inactive) | 68.1 µM (inactive) | > 100 µM (inactive) | 49.7 µM (inactive) | > 100 µM (inactive) | > 100 µM (inactive) | > 100 µM (inactive) | 21.5 µM (inactive) | – | 23.3 µM (inactive) | 21.5 µM (inactive) | 33.4 µM (inactive) | 24.2 µM (inactive) | 92.3 µM (inactive) | > 100 µM (inactive) | 48.8 µM (inactive)
14 | O=C1CNCCCN2CCN(CCCNCC(=O)Nc3ccc(cc3)S(=O)(=O)c3ccc(cc3)NC(=O)CNCCCN3CCN(CCCNCC(=O)Nc4ccc(cc4)S(=O)(=O)c4ccc(cc4)N1)CC3)CC2 | 21.2 µM (inactive) | 29.2 µM (inactive) | 41.4 µM (inactive) | 37.2 µM (inactive) | 41.7 µM (inactive) | 20.9 µM (inactive) | 31.4 µM (inactive) | 25.6 µM (inactive) | 52.2 µM (inactive) | 25.1 µM (inactive) | 16.3 µM (inactive) | 19.5 µM (inactive) | 22.9 µM (inactive) | 19.4 µM (inactive) | 0.433 µM (active) | 31.4 µM (inactive) | 21.5 µM (inactive) | 20.7 µM (inactive) | 34.8 µM (inactive) | 36.6 µM (inactive)
15 | CC(=O)OC12c3ccccc3-c3ccccc3C1C(C(=O)O)C2(Cl)C(=O)O (centres undefined) | > 10 µM (inactive) | > 10 µM (inactive) | > 10 µM (inactive) | > 10 µM (inactive) | > 10 µM (inactive) | > 10 µM (inactive) | > 10 µM (inactive) | > 10 µM (inactive) | > 10 µM (inactive) | > 10 µM (inactive) | > 10 µM (inactive) | > 10 µM (inactive) | > 10 µM (inactive) | > 10 µM (inactive) | > 10 µM (inactive) | > 10 µM (inactive) | – | > 10 µM (inactive) | > 10 µM (inactive) | > 10 µM (inactive)
